Measured values published in patent publication US20230149419A1, “COMPOSITION FOR PREVENTING OR TREATING NEUROINFLAMMATORY DISEASES, COMPRISING CHLORPROMAZINE” (GliaCellTech Inc., priority 2020, published 2023).

How the values were obtained:
[1] = system: primary microglia from wild-type mice; test: Effect of REV-ERBα agonist on LPS-induced IL-6 secretion (ELISA), wild-type microglia; type: cell-based, mouse; conditions: for IL-6 secreted: WT microglia
Procedure: (§1) The efficacy of SR9009 was evaluated by analyzing IL-6 at protein and mRNA expression levels according to post-LPS treatment time (2, 6, 12, and 24 hours) in the same ELISA and qRT-PCR as in Example 5.

[2] = system: primary microglia from Psen2 mutation mouse model of Alzheimer's disease; test: Effect of REV-ERBα agonist on LPS-induced IL-6 secretion (ELISA), Psen2 mutation microglia; type: cell-based; conditions: for IL-6 secreted: KI/+ microglia
Procedure: as §1

[3] = system: primary microglia from wild-type mice; test: Effect of REV-ERBα agonist on LPS-induced IL-6 mRNA (qRT-PCR), wild-type microglia; type: cell-based, mouse; conditions: for IL-6 mRNA expression level: WT microglia
Procedure: as §1

[4] = system: primary microglia from Psen2 mutation mouse model of Alzheimer's disease; test: Effect of REV-ERBα agonist on LPS-induced IL-6 mRNA (qRT-PCR), Psen2 mutation microglia; type: cell-based; conditions: for IL-6 mRNA expression level: KI/+ microglia
Procedure: as §1

[5] = wild-type microglia, group 32 vs 31, 2, 6, 12 and 24 hours
[6] = 10 NM SR9009, LPS 1 μg/mL 2 h (Group 34)
[7] = 10 NM SR9009, LPS 1 μg/mL 6 h (Group 34)
[8] = 10 NM SR9009, LPS 1 μg/mL 12 h (Group 34)
[9] = 10 NM SR9009, LPS 1 μg/mL 24 h (Group 34)

SMILES: CCOC(=O)N1CCC(CN(Cc2ccc(Cl)cc2)Cc2ccc([N+](=O)[O-])s2)C1 (centres unmarked) [SR9009]
- IL-6 secreted ([1]; 10 NM SR9009, LPS 1 μg/mL 2 h (Group 32)): 24.467 pg/mL
- IL-6 secreted ([1]; 10 NM SR9009, LPS 1 μg/mL 6 h (Group 32)): 85.630 pg/mL
- IL-6 secreted ([1]; 10 NM SR9009, LPS 1 μg/mL 12 h (Group 32)): 361.583 pg/mL
- IL-6 secreted ([1]; 10 NM SR9009, LPS 1 μg/mL 24 h (Group 32)): 555.053 pg/mL
- production of IL-6 (in words) [1, 5]: repressed the production of IL-6
- IL-6 secreted [2, 6]: 38.229 pg/mL
- IL-6 secreted [2, 7]: 332.114 pg/mL
- IL-6 secreted [2, 8]: 1146.560 pg/mL
- IL-6 secreted [2, 9]: 1657.510 pg/mL
- production of IL-6 (in words) ([2]; Psen2 mutation microglia, SR9009-treated group vs group 33): cannot repress
- IL-6 mRNA expression level ([3]; SR9009, LPS 1 μg/mL 2 h (Group 32)): 0.456 fold
- IL-6 mRNA expression level ([3]; SR9009, LPS 1 μg/mL 6 h (Group 32)): 1.098 fold
- IL-6 mRNA expression level ([3]; SR9009, LPS 1 μg/mL 12 h (Group 32)): 1.129 fold
- IL-6 mRNA expression level ([3]; SR9009, LPS 1 μg/mL 24 h (Group 32)): 2.150 fold
- mRNA expression of IL-6 (in words) [3, 5]: repressed the mRNA expression of IL-6
- IL-6 mRNA expression level [4, 6]: 1.134 fold
- IL-6 mRNA expression level [4, 7]: 7.810 fold
- IL-6 mRNA expression level [4, 8]: 8.512 fold
- IL-6 mRNA expression level [4, 9]: 11.141 fold
- mRNA expression of IL-6 (in words) ([4]; Psen2 mutant microglia, group 34 vs 33): cannot repress
